From ChEMBL document CHEMBL3044763, “Inhibitory Activities of Rhodanine Derivatives on Plant Growth” (Biosci Biotechnol Biochem, 1996)

What was measured:
[1] = Toxicity in Mus musculus ddY (mouse) assessed as mortality at 325 mg/kg, ip after 1 day; format: organism-based; parameters: dose 325 mg/kg, route intraperitoneal; details: in vivo
[2] = Toxicity in Mus musculus ddY (mouse) assessed as mortality at 400 mg/kg, ip after 5 days; format: organism-based; parameters: dose 400 mg/kg, route intraperitoneal; details: in vivo
[3] = system: Brassica rapa subsp. oleifera; assay: Growth inhibition of Brassica rapa subsp. oleifera assessed as root growth at 3 x 10^-5 M after 7 days; format: functional
[4] = Toxicity in Mus musculus ddY (mouse) assessed as mortality at 300 mg/kg, ip after 6 days; format: organism-based; parameters: dose 300 mg/kg, route intraperitoneal; details: in vivo
[5] = system: Brassica rapa subsp. oleifera; assay: Growth inhibition of Brassica rapa subsp. oleifera assessed as chlorophyll b level at 1 x 10^-4 M after 7 days; format: functional; parameters: scale not given: the % may be the effect or the level left
[6] = Toxicity in Mus musculus ddY (mouse) assessed as mortality at 350 mg/kg, ip after 2 days; format: organism-based; parameters: dose 350 mg/kg, route intraperitoneal; details: in vivo
[7] = system: Brassica rapa subsp. oleifera; assay: Growth inhibition of Brassica rapa subsp. oleifera assessed as chlorophyll a level at 3 x 10^-4 M after 7 days; format: functional; parameters: scale not given: the % may be the effect or the level left
[8] = Toxicity in Mus musculus ddY (mouse) assessed as mortality at 275 mg/kg, ip after 2 days; format: organism-based; parameters: dose 275 mg/kg, route intraperitoneal; details: in vivo
[9] = system: Brassica rapa subsp. oleifera; assay: Growth inhibition of Brassica rapa subsp. oleifera assessed as chlorophyll a level at 1 x 10^-4 M after 7 days; format: functional; parameters: scale not given: the % may be the effect or the level left
[10] = Toxicity in Mus musculus ddY (mouse) assessed as mortality at 275 mg/kg, ip after 7 days; format: organism-based; parameters: dose 275 mg/kg, route intraperitoneal; details: in vivo
[11] = Toxicity in Mus musculus ddY (mouse) assessed as mortality at 375 mg/kg, ip after 4 days; format: organism-based; parameters: dose 375 mg/kg, route intraperitoneal; details: in vivo
[12] = Toxicity in Mus musculus ddY (mouse) assessed as mortality at 325 mg/kg, ip after 5 days; format: organism-based; parameters: dose 325 mg/kg, route intraperitoneal; details: in vivo
[13] = Toxicity in Mus musculus ddY (mouse) assessed as mortality at 275 mg/kg, ip after 1 day; format: organism-based; parameters: dose 275 mg/kg, route intraperitoneal; details: in vivo
[14] = Toxicity in Mus musculus ddY (mouse) assessed as mortality at 350 mg/kg, ip after 4 days; format: organism-based; parameters: dose 350 mg/kg, route intraperitoneal; details: in vivo
[15] = system: Brassica rapa subsp. oleifera; assay: Growth inhibition of Brassica rapa subsp. oleifera assessed as root growth at 5 x 10^-5 M after 7 days; format: functional
[16] = Toxicity in Mus musculus ddY (mouse) assessed as mortality at 375 mg/kg, ip after 6 days; format: organism-based; parameters: dose 375 mg/kg, route intraperitoneal; details: in vivo
[17] = system: Brassica rapa subsp. oleifera; assay: Growth inhibition of Brassica rapa subsp. oleifera assessed as chlorophyll b level at 5 x 10^-5 M after 7 days; format: functional; parameters: scale not given: the % may be the effect or the level left
[18] = Toxicity in Mus musculus ddY (mouse) assessed as mortality at 375 mg/kg, ip after 5 days; format: organism-based; parameters: dose 375 mg/kg, route intraperitoneal; details: in vivo
[19] = Toxicity in Mus musculus ddY (mouse) assessed as mortality at 300 mg/kg, ip after 5 days; format: organism-based; parameters: dose 300 mg/kg, route intraperitoneal; details: in vivo
[20] = Toxicity in Mus musculus ddY (mouse) assessed as mortality at 300 mg/kg, ip after 1 day; format: organism-based; parameters: dose 300 mg/kg, route intraperitoneal; details: in vivo
[21] = system: Brassica rapa subsp. oleifera; assay: Growth inhibition of Brassica rapa subsp. oleifera assessed as root growth at 3 x 10^-4 M after 7 days; format: functional
[22] = Toxicity in Mus musculus ddY (mouse) assessed as mortality at 350 mg/kg, ip after 1 day; format: organism-based; parameters: dose 350 mg/kg, route intraperitoneal; details: in vivo
[23] = system: Brassica rapa subsp. oleifera; assay: Growth inhibition of Brassica rapa subsp. oleifera assessed as total chlorophyll level at 3 x 10^-5 M after 7 days; format: functional; parameters: scale not given: the % may be the effect or the level left
[24] = Toxicity in Mus musculus ddY (mouse) assessed as mortality at 325 mg/kg, ip after 2 days; format: organism-based; parameters: dose 325 mg/kg, route intraperitoneal; details: in vivo
[25] = Toxicity in Mus musculus ddY (mouse) assessed as mortality at 375 mg/kg, ip after 3 days; format: organism-based; parameters: dose 375 mg/kg, route intraperitoneal; details: in vivo
[26] = Toxicity in Mus musculus ddY (mouse) assessed as mortality at 350 mg/kg, ip after 6 days; format: organism-based; parameters: dose 350 mg/kg, route intraperitoneal; details: in vivo
[27] = Toxicity in Mus musculus ddY (mouse) assessed as mortality at 300 mg/kg, ip after 4 days; format: organism-based; parameters: dose 300 mg/kg, route intraperitoneal; details: in vivo
[28] = Toxicity in Mus musculus ddY (mouse) assessed as mortality at 375 mg/kg, ip after 1 day; format: organism-based; parameters: dose 375 mg/kg, route intraperitoneal; details: in vivo
[29] = Toxicity in Mus musculus ddY (mouse) assessed as mortality at 300 mg/kg, ip after 2 days; format: organism-based; parameters: dose 300 mg/kg, route intraperitoneal; details: in vivo
[30] = Toxicity in Mus musculus ddY (mouse) assessed as mortality at 300 mg/kg, ip after 7 days; format: organism-based; parameters: dose 300 mg/kg, route intraperitoneal; details: in vivo
[31] = system: Brassica rapa subsp. oleifera; assay: Growth inhibition of Brassica rapa subsp. oleifera assessed as chlorophyll b level at 3 x 10^-5 M after 7 days; format: functional; parameters: scale not given: the % may be the effect or the level left
[32] = system: Brassica rapa subsp. oleifera; assay: Growth inhibition of Brassica rapa subsp. oleifera assessed as root growth at 1 x 10^-4 M after 7 days; format: functional
[33] = Toxicity in Mus musculus ddY (mouse) assessed as mortality at 325 mg/kg, ip after 6 days; format: organism-based; parameters: dose 325 mg/kg, route intraperitoneal; details: in vivo
[34] = Toxicity in Mus musculus ddY (mouse) assessed as mortality at 400 mg/kg, ip after 3 days; format: organism-based; parameters: dose 400 mg/kg, route intraperitoneal; details: in vivo
[35] = Toxicity in Mus musculus ddY (mouse) assessed as mortality at 325 mg/kg, ip after 3 days; format: organism-based; parameters: dose 325 mg/kg, route intraperitoneal; details: in vivo
[36] = system: Brassica rapa subsp. oleifera; assay: Growth inhibition of Brassica rapa subsp. oleifera assessed as total chlorophyll level at 1 x 10^-4 M after 7 days; format: functional; parameters: scale not given: the % may be the effect or the level left
[37] = system: Brassica rapa subsp. oleifera; assay: Growth inhibition of Brassica rapa subsp. oleifera assessed as total chlorophyll level at 3 x 10^-4 M after 7 days; format: functional; parameters: scale not given: the % may be the effect or the level left
[38] = system: Brassica rapa subsp. oleifera; assay: Growth inhibition of Brassica rapa subsp. oleifera assessed as chlorophyll b level at 3 x 10^-4 M after 7 days; format: functional; parameters: scale not given: the % may be the effect or the level left
[39] = Toxicity in Mus musculus ddY (mouse) assessed as mortality at 350 mg/kg, ip after 3 days; format: organism-based; parameters: dose 350 mg/kg, route intraperitoneal; details: in vivo
[40] = system: Brassica rapa subsp. oleifera; assay: Growth inhibition of Brassica rapa subsp. oleifera assessed as total chlorophyll level at 5 x 10^-5 M after 7 days; format: functional; parameters: scale not given: the % may be the effect or the level left
[41] = Toxicity in Mus musculus ddY (mouse) assessed as mortality at 350 mg/kg, ip after 5 days; format: organism-based; parameters: dose 350 mg/kg, route intraperitoneal; details: in vivo
[42] = Toxicity in Mus musculus ddY (mouse) assessed as mortality at 275 mg/kg, ip after 4 days; format: organism-based; parameters: dose 275 mg/kg, route intraperitoneal; details: in vivo
[43] = Toxicity in Mus musculus ddY (mouse) assessed as mortality at 350 mg/kg, ip after 7 days; format: organism-based; parameters: dose 350 mg/kg, route intraperitoneal; details: in vivo
[44] = Toxicity in Mus musculus ddY (mouse) assessed as mortality at 400 mg/kg, ip after 2 days; format: organism-based; parameters: dose 400 mg/kg, route intraperitoneal; details: in vivo
[45] = Toxicity in Mus musculus ddY (mouse) assessed as mortality at 300 mg/kg, ip after 3 days; format: organism-based; parameters: dose 300 mg/kg, route intraperitoneal; details: in vivo
[46] = Toxicity in Mus musculus ddY (mouse) assessed as mortality at 400 mg/kg, ip after 7 days; format: organism-based; parameters: dose 400 mg/kg, route intraperitoneal; details: in vivo
[47] = Toxicity in ip dosed Mus musculus ddY (mouse) assessed as mortality after 1 to 7 days; format: organism-based; details: in vivo
[48] = Toxicity in Mus musculus ddY (mouse) assessed as mortality at 400 mg/kg, ip after 1 day; format: organism-based; parameters: dose 400 mg/kg, route intraperitoneal; details: in vivo
[49] = Toxicity in Mus musculus ddY (mouse) assessed as mortality at 400 mg/kg, ip after 4 days; format: organism-based; parameters: dose 400 mg/kg, route intraperitoneal; details: in vivo
[50] = Toxicity in Mus musculus ddY (mouse) assessed as mortality at 275 mg/kg, ip after 6 days; format: organism-based; parameters: dose 275 mg/kg, route intraperitoneal; details: in vivo
[51] = Toxicity in Mus musculus ddY (mouse) assessed as mortality at 375 mg/kg, ip after 7 days; format: organism-based; parameters: dose 375 mg/kg, route intraperitoneal; details: in vivo
[52] = Toxicity in Mus musculus ddY (mouse) assessed as mortality at 325 mg/kg, ip after 7 days; format: organism-based; parameters: dose 325 mg/kg, route intraperitoneal; details: in vivo
[53] = Toxicity in Mus musculus ddY (mouse) assessed as mortality at 275 mg/kg, ip after 3 days; format: organism-based; parameters: dose 275 mg/kg, route intraperitoneal; details: in vivo
[54] = Toxicity in Mus musculus ddY (mouse) assessed as mortality at 400 mg/kg, ip after 6 days; format: organism-based; parameters: dose 400 mg/kg, route intraperitoneal; details: in vivo
[55] = system: Brassica rapa subsp. oleifera; assay: Growth inhibition of Brassica rapa subsp. oleifera assessed as chlorophyll a level at 3 x 10^-5 M after 7 days; format: functional; parameters: scale not given: the % may be the effect or the level left
[56] = Toxicity in Mus musculus ddY (mouse) assessed as mortality at 275 mg/kg, ip after 5 days; format: organism-based; parameters: dose 275 mg/kg, route intraperitoneal; details: in vivo
[57] = Toxicity in Mus musculus ddY (mouse) assessed as mortality at 375 mg/kg, ip after 2 days; format: organism-based; parameters: dose 375 mg/kg, route intraperitoneal; details: in vivo
[58] = Toxicity in Mus musculus ddY (mouse) assessed as mortality at 325 mg/kg, ip after 4 days; format: organism-based; parameters: dose 325 mg/kg, route intraperitoneal; details: in vivo
[59] = system: Brassica rapa subsp. oleifera; assay: Growth inhibition of Brassica rapa subsp. oleifera assessed as chlorophyll a level at 5 x 10^-5 M after 7 days; format: functional; parameters: scale not given: the % may be the effect or the level left

O=C1CSC(=S)N1 [RHODANINE]
mortality at 24 h [1]: 40% | mortality at 120 h [2]: 100% | Root length [3]: 46 mm | mortality at 144 h [4]: 40% | Activity [5]: 2.41% | mortality at 48 h [6]: 80% | Activity [7]: 2.09% | mortality at 48 h [8]: 0% | Activity [9]: 6.76% | mortality at 168 h [10]: 0% | mortality at 96 h [11]: 100% | mortality at 120 h [12]: 80% | mortality at 24 h [13]: 0% | mortality at 96 h [14]: 80% | Root length [15]: 42.5 mm | mortality at 144 h [16]: 100% | Activity [17]: 5.08% | mortality at 120 h [18]: 100% | mortality at 120 h [19]: 40% | mortality at 24 h [20]: 0% | Activity [21]: 11.3 mm | mortality at 24 h [22]: 20% | Activity [23]: 19.19% | mortality at 48 h [24]: 80% | mortality at 72 h [25]: 100% | mortality at 144 h [26]: 80% | mortality at 96 h [27]: 40% | mortality at 24 h [28]: 80% | mortality at 48 h [29]: 40% | mortality at 168 h [30]: 40% | Activity [31]: 4.8% | Activity [32]: 38.7 mm | mortality at 144 h [33]: 80% | mortality at 72 h [34]: 100% | mortality at 72 h [35]: 80% | Activity [36]: 9.16% | Activity [37]: 3.52% | Activity [38]: 1.44% | mortality at 72 h [39]: 80% | Activity [40]: 19.17% | mortality at 120 h [41]: 80% | mortality at 96 h [42]: 0% | mortality at 168 h [43]: 80% | mortality at 48 h [44]: 100% | mortality at 72 h [45]: 40% | mortality at 168 h [46]: 100% | LD50 [47]: 311 mg/kg | mortality at 24 h [48]: 80% | mortality at 96 h [49]: 100% | mortality at 144 h [50]: 0% | mortality at 168 h [51]: 100% | mortality at 168 h [52]: 80% | mortality at 72 h [53]: 0% | mortality at 144 h [54]: 100% | Activity [55]: 14.1% | mortality at 120 h [56]: 0% | mortality at 48 h [57]: 100% | mortality at 96 h [58]: 80% | Activity [59]: 14.1%
